Results published in patent US11542273B2, “Amide compound having bet proteolysis-inducing action and medicinal application thereof” (MITSUBISHI TANABE PHARMA CORPORATION, priority 2018, dated 2023).

Columns and labels:
BRD4 protein = BRD4 protein (Homo sapiens (Human), UniProt O60885); assay: BRD4 protein degradation inducing action in cancer cells (immunofluorescence, Operetta); type: cell-based; settings: LNCaP cells, 6 hr treatment, fluorescence intensity
In short: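 LNCaP prostate cancer cells in 10% FBS/RPMI1640 were exposed to compound for 6 hr at 37° C, then fixed, permeabilized and immunostained for BRD4 with Alexa Fluor 488 or 546 secondary antibodies plus Hoechst nuclear stain. Fluorescence was read by high-content imaging; DC50 is the concentration giving 50% of untreated signal, interpolated linearly between bracketing points.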

[1] = system: human prostate cancer LNCaP cells; assay: Cytotoxic action on cancer cells (WST-8, 96 hr); type: cell-based; settings: Homo sapiens, LNCaP, 96 h, read-out: LNCaP cytotoxic activity: IC50
In short: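 Viable cell number, measured by WST-8, is compared with compound-free cultures after treatment. Cells are kept in 10% FBS/RPMI1640 at 37° C under 5% CO2, and IC50 comes from the line joining the two survival rates that bracket 50%.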

COC(=O)C[C@@H]1N=C(c2ccc(-c3ccc4oc(C(=O)N[C@H](C(=O)N5C[C@H](O)C[C@H]5C(=O)NCc5ccc(-c6scnc6C)cc5)C(C)(C)C)nc4c3)cc2)c2c(sc(C)c2C)-n2c(C)nnc21 [Example 171, methyl [(6S)-4-{4-[2-({(2S)-1-[(2S,4R)-4-hydroxy-2-({[4-(4-methyl-1,3-thiazol-5-yl)phenyl]methyl}carbamoyl)pyrrolidin-1-yl]-3,3-dimethyl-1-oxobutan-2-yl}carbamoyl)-1,3-benzoxazol-5-yl]phenyl}-2,3,9-trimethyl-6H-thieno[3,2-f][1,2,4]triazolo[4,3-a][1,4]diazepin-6-yl]acetate]
DC50 (BRD4 protein): 0.16 nM | IC50 [1]: 0.08 nM

COC(=O)C[C@@H]1N=C(c2ccc(-n3ccc(C(=O)N[C@H](C(=O)N4C[C@H](O)C[C@H]4C(=O)N[C@@H](C)c4ccc(-c5scnc5C)cc4)C(C)(C)C)n3)cc2)c2c(sc(C)c2C)-n2c(C)nnc21 [Example 172, methyl [(6S)-4-{4-[3-({(2S)-1-[(2S,4R)-4-hydroxy-2-({(1S)-1-[4-(4-methyl-1,3-thiazol-5-yl)phenyl]ethyl}carbamoyl)pyrrolidin-1-yl]-3,3-dimethyl-1-oxobutan-2-yl}carbamoyl)-1H-pyrazol-1-yl]phenyl}-2,3,9-trimethyl-6H-thieno[3,2-f][1,2,4]triazolo[4,3-a][1,4]diazepin-6-yl]acetate]
DC50 (BRD4 protein): 0.37 nM | IC50 [1]: 0.36 nM

COC(=O)C[C@@H]1N=C(c2ccc(-c3cc(C(=O)N[C@H](C(=O)N4C[C@H](O)C[C@H]4C(=O)N[C@@H](C)c4ccc(-c5scnc5C)cc4)C(C)(C)C)cc(F)c3F)cc2)c2c(sc(C)c2C)-n2c(C)nnc21 [Example 173, methyl {(6S)-4-[2′,3′-difluoro-5′-({(2S)-1-[(2S,4R)-4-hydroxy-2-({(1S)-1-[4-(4-methyl-1,3-thiazol-5-yl)phenyl]ethyl}carbamoyl)pyrrolidin-1-yl]-3,3-dimethyl-1-oxobutan-2-yl}carbamoyl)[1,1′-biphenyl]-4-yl]-2,3,9-trimethyl-6H-thieno[3,2-f][1,2,4]triazolo[4,3-a][1,4]diazepin-6-yl}acetate]
DC50 (BRD4 protein): 0.53 nM | IC50 [1]: 0.53 nM

COC(=O)C[C@@H]1N=C(c2ccc(-c3c(F)ccc(C(=O)N[C@H](C(=O)N4C[C@H](O)C[C@H]4C(=O)N[C@@H](C)c4ccc(-c5scnc5C)cc4)C(C)(C)C)c3F)cc2)c2c(sc(C)c2C)-n2c(C)nnc21 [Example 174, methyl {(6S)-4-[2′,6′-difluoro-3′-({(2S)-1-[(2S,4R)-4-hydroxy-2-({(1S)-1-[4-(4-methyl-1,3-thiazol-5-yl)phenyl]ethyl}carbamoyl)pyrrolidin-1-yl]-3,3-dimethyl-1-oxobutan-2-yl}carbamoyl)[1,1′-biphenyl]-4-yl]-2,3,9-trimethyl-6H-thieno[3,2-f][1,2,4]triazolo[4,3-a][1,4]diazepin-6-yl}acetate]
DC50 (BRD4 protein): 0.31 nM | IC50 [1]: 0.37 nM

COC(=O)C[C@@H]1N=C(c2ccc(-c3cc(F)cc(C(=O)N[C@H](C(=O)N4C[C@H](O)C[C@H]4C(=O)N[C@@H](C)c4ccc(-c5scnc5C)cc4)C(C)(C)C)c3F)cc2)c2c(sc(C)c2C)-n2c(C)nnc21 [Example 175, methyl {(6S)-4-[2′,5′-difluoro-3′-({(25)-1-[(2S,4R)-4-hydroxy-2-({(1S)-1-[4-(4-methyl-1,3-thiazol-5-yl)phenyl]ethyl}carbamoyl)pyrrolidin-1-yl]-3,3-dimethyl-1-oxobutan-2-yl}carbamoyl)[1,1′-biphenyl]-4-yl]-2,3,9-trimethyl-6H-thieno[3,2-f][1,2,4]triazolo[4,3-a][1,4]diazepin-6-yl}acetate]
DC50 (BRD4 protein): 0.5 nM | IC50 [1]: 0.3 nM

COC(=O)C[C@@H]1N=C(c2ccc(-c3ccc(C(=O)N[C@H](C(=O)N4C[C@H](O)C[C@H]4C(=O)N[C@@H](C)c4ccc(-c5scnc5C)cc4)C(C)(C)C)c(F)c3F)cc2)c2c(sc(C)c2C)-n2c(C)nnc21 [Example 176, methyl {(6S)-4-[2′,3′-difluoro-4′-({(2S)-1-[(2S,4R)-4-hydroxy-2-({(1S)-1-[4-(4-methyl-1,3-thiazol-5-yl)phenyl]ethyl}carbamoyl)pyrrolidin-1-yl]-3,3-dimethyl-1-oxobutan-2-yl}carbamoyl)[1,1′-biphenyl]-4-yl]-2,3,9-trimethyl-6H-thieno[3,2-f][1,2,4]triazolo[4,3-a][1,4]diazepin-6-yl}acetate]
DC50 (BRD4 protein): 0.44 nM | IC50 [1]: 0.39 nM

COC(=O)C[C@@H]1N=C(c2ccc(N3CCN(c4cccc(C(=O)N[C@H](C(=O)N5C[C@H](O)C[C@H]5C(=O)N[C@@H](C)c5ccc(-c6scnc6C)cc5)C(C)(C)C)n4)CC3)cc2)c2c(sc(C)c2C)-n2c(C)nnc21 [Example 177, methyl [(6S)-4-(4-{4-[6-({(2S)-1-[(2S,4R)-4-hydroxy-2-({(1S)-1-[4-(4-methyl-1,3-thiazol-5-yl)phenyl]ethyl}carbamoyl)pyrrolidin-1-yl]-3,3-dimethyl-1-oxobutan-2-yl}carbamoyl)pyridin-2-yl]piperazin-1-yl}phenyl)-2,3,9-trimethyl-6H-thieno[3,2-f][1,2,4]triazolo[4,3-a] [1,4]diazepin-6-yl]acetate]
DC50 (BRD4 protein): 0.23 nM | IC50 [1]: 0.36 nM

COC(=O)C[C@@H]1N=C(c2ccc(-c3ccccc3OCC(=O)N[C@H](C(=O)N3C[C@H](O)C[C@H]3C(=O)N[C@@H](C)c3ccc(-c4scnc4C)cc3)C(C)(C)C)cc2)c2c(sc(C)c2C)-n2c(C)nnc21 [Example 178, methyl [(6S)-4-{2′-[2-({(2S)-1-[(2S,4R)-4-hydroxy-2-({(1S)-1-[4-(4-methyl-1,3-thiazol-5-yl)phenyl]ethyl}carbamoyl)pyrrolidin-1-yl]-3,3-dimethyl-1-oxobutan-2-yl}amino)-2-oxoethoxy][1,1′-biphenyl]-4-yl}-2,3,9-trimethyl-6H-thieno[3,2-f][1,2,4]triazolo[4,3-a][1,4]diazepin-6-yl]acetate]
DC50 (BRD4 protein): 0.8 nM | IC50 [1]: 0.68 nM

COC(=O)C[C@@H]1N=C(c2ccc(-c3ccc4sc(C(=O)N[C@H](C(=O)N5C[C@H](O)C[C@H]5C(=O)N[C@@H](C)c5ccc(-c6scnc6C)cc5)C(C)(C)C)nc4c3)cc2)c2c(sc(C)c2C)-n2c(C)nnc21 [Example 179, methyl [(6S)-4-{4-[2-({(2S)-1-[(2S,4R)-4-hydroxy-2-({(1S)-1-[4-(4-methyl-1,3-thiazol-5-yl)phenyl]ethyl}carbamoyl)pyrrolidin-1-yl]-3,3-dimethyl-1-oxobutan-2-yl}carbamoyl)-1,3-benzothiazol-5-yl]phenyl}-2,3,9-trimethyl-6H-thieno[3,2-f][1,2,4]triazolo[4,3-a][1,4]diazepin-6-yl]acetate]
DC50 (BRD4 protein): 0.11 nM | IC50 [1]: 0.21 nM

COC(=O)C[C@@H]1N=C(c2ccc(-c3ccc4nc(C(=O)N[C@H](C(=O)N5C[C@H](O)C[C@H]5C(=O)N[C@@H](C)c5ccc(-c6scnc6C)cc5)C(C)(C)C)oc4c3)cc2)c2c(sc(C)c2C)-n2c(C)nnc21 [Example 181, methyl [(6S)-4-{4-[2-({(2S)-1-[(2S,4R)-4-hydroxy-2-({(1S)-1-[4-(4-methyl-1,3-thiazol-5-yl)phenyl]ethyl}carbamoyl)pyrrolidin-1-yl]-3,3-dimethyl-1-oxobutan-2-yl}carbamoyl)-1,3-benzoxazol-6-yl]phenyl}-2,3,9-trimethyl-6H-thieno[3,2-f][1,2,4]triazolo[4,3-a][1,4]diazepin-6-yl]acetate]
DC50 (BRD4 protein): 0.031 nM | IC50 [1]: 0.037 nM

COC(=O)C[C@@H]1N=C(c2ccc(-c3ccc(C(=O)N[C@H](C(=O)N4C[C@H](O)C[C@H]4C(=O)N[C@@H](C)c4ccc(-c5scnc5C)cc4)C(C)(C)C)c(C)c3)cc2)c2c(sc(C)c2C)-n2c(C)nnc21 [Example 183, methyl {(6S)-4-[4′-({(2S)-1-[(2S,4R)-4-hydroxy-2-({(1S)-1-[4-(4-methyl-1,3-thiazol-5-yl)phenyl]ethyl}carbamoyl)pyrrolidin-1-yl]-3,3-dimethyl-1-oxobutan-2-yl}carbamoyl)-3′-methyl[1,1′-biphenyl]-4-yl]-2,3,9-trimethyl-6H-thieno[3,2-f][1,2,4]triazolo[4,3-a][1,4]diazepin-6-yl}acetate]
DC50 (BRD4 protein): 0.93 nM | IC50 [1]: 1.5 nM

COC(=O)C[C@@H]1N=C(c2ccc(-c3ccc(CCC(=O)N[C@H](C(=O)N4C[C@H](O)C[C@H]4C(=O)N[C@@H](C)c4ccc(-c5scnc5C)cc4)C(C)(C)C)s3)cc2)c2c(sc(C)c2C)-n2c(C)nnc21 [Example 188, methyl [(6S)-4-(4-{5-[3-({(2S)-1-[(2S,4R)-4-hydroxy-2-({(1S)-1-[4-(4-methyl-1,3-thiazol-5-yl)phenyl]ethyl}carbamoyl)pyrrolidin-1-yl]-3,3-dimethyl-1-oxobutan-2-yl}amino)-3-oxopropyl]thiophen-2-yl}phenyl)-2,3,9-trimethyl-6H-thieno[3,2-f][1,2,4]triazolo[4,3-a][1,4]diazepin-6-yl]acetate]
DC50 (BRD4 protein): 0.26 nM | IC50 [1]: 0.042 nM

COC(=O)C[C@@H]1N=C(c2ccc(-c3ccc(C(=O)N[C@H](C(=O)N4C[C@H](O)C[C@H]4C(=O)NCc4ccc(-c5scnc5C)cc4)C(C)(C)C)cc3F)cc2)c2c(sc(C)c2C)-n2c(C)nnc21 [Example 189, methyl {(6S)-4-[2′-fluoro-4′-({(2S)-1-[(2S,4R)-4-hydroxy-2-({[4-(4-methyl-1,3-thiazol-5-yl)phenyl]methyl}carbamoyl)pyrrolidin-1-yl]-3,3-dimethyl-1-oxobutan-2-yl}carbamoyl) [1,1′-biphenyl]-4-yl]-2,3,9-trimethyl-6H-thieno [3,2-f][1,2,4]triazolo [4,3-a][1,4]diazepin-6-yl}acetate]
DC50 (BRD4 protein): 0.44 nM | IC50 [1]: 0.17 nM
